# Where two headings read alike, the source gives them in different places.
# Key:
# HCT116 cells [1] = assay: [3H]choline uptake in HCT116 cells; type: cell-based; settings: Homo sapiens, HCT-116
# Procedure: (§1) Enzymatic kinase activity, [^3H]choline to [^3H]PCho conversion and growth inhibition assays was conducted as previously described. [^3H]choline incorporation into soluble and lipid fractions was determined by a pulse-chase experiment. HCT116 cells were seeded at a density of 3 × 10^5 cell per well into 12-well plates and incubated overnight. Cells were treated with 1 or 10 μM ICL-CCIC-0019 for 1 h and pulsed in presence of inhibitor with 18.5 kBq/mL [^3H]choline chloride in 500 μL for 1 additional h. Cells were briefly rinsed with RPMI and incubated with fresh, non-radioactive medium for 6 h. Metabolites were extracted as described elsewhere, but additionally the radioactivity of the choline-containing and chloroform (lipid-containing) fractions was measured. Uptake of radiolabeled metabolite-tracers was measured as described elsewhere. Antiproliferative activity was measured after 72 h continuous exposure to inhibitors by sulforhodamine B (SRB) assay as described elsewhere. Apoptosis was determined using Caspase 3/7 Glo assay (Promega) according to the manufacturer's instructions.
# Breast cancer cell lines = assay: NCI-60 screen; type: cell-based; settings: Homo sapiens, read-out: median GI50
# Source text: (§2) The compound was then screened against a larger panel of cancer cell lines of diverse histopathologic origin, the NCI-60 screen. […] Mining of publicly available Cancer Genome Atlas (TCGA) expression data identified CHKA amplification and/or mRNA upregulation in 11% of breast, 5–10% of lung, 8% of ovarian, 7% of colorectal and 5% of prostate cancers. Furthermore, CHKA mRNA expression is higher in multiple tumor types compared to normal tissue (Supplementary Figure S1D). The gene was rarely mutated or deleted (0–2.5% mutation rate and < 1% deletion among all tested cancer types). The consistently high expression in a wide variety of tumor types highlights the relevance of CHKA in malignancy and role as a therapeutic target.
# [2] = tested on: non-small lung cancer cell lines; assay: NCI-60 screen; type: cell-based; settings: Homo sapiens, read-out: median GI50
# Source text: as §2
# HCT116 cells [3] = assay: Cell membrane integrity assay (LDH release); type: cell-based, human; settings: 1–25 μM, 4 h
# Procedure: Cell membrane integrity was assessed using a fluorescent kit measuring lactate dehydrogenase (LDH) release (CytoTox-ONETM, Promega) according to manufacturer's instructions.
# HCT116 cells [4] = assay: DNA cell cycle analysis (flow cytometry, propidium iodide); type: cell-based, human
# Procedure: Supernatant and cells were harvested, washed and centrifuged. The cell pellet was resuspended it 1 mL ice-cold PBS and the suspension added to 9 mL 70% ethanol, while mixing gently. Cells were fixed for at least 2 hours at −20°C. Cells were centrifuged and rehydrated in 3 mL cold PBS for 15 minutes. Samples were stained in 500 μL buffer containing 100 mM Tris pH 7.4, 150 mM NaCl, 1 mM CaCl2, 0.5 mM MgCl2, 0.1% Triton X-100, 0.1 mg/ml RNase A, 50 μg/ml propidium iodide (all items from Sigma-Aldrich) at 37°C for 3 h protected from light. Data were acquired on a BD FACS Canto flow cytometer (BD Bioscience) and analyzed using FlowJo 7.6.4 software (Tree Star).
# HCT116 cells [5] = assay: Reactive oxygen species assay; type: cell-based, human; settings: 10 μM
# Procedure: For ROS measurements, cells were seeded in 96-well plates and treated with indicated ICL-CCIC-0019 (10 μM), pro- and antioxidants (0.25% H2O2 and 5 mM N-acetyl cysteine, NAC; all from Sigma-Aldrich) for indicated times. C400 (Life Technologies) was added at a final concentration of 50 μM and incubated at 37°C for 15 minutes and fluorescence quantified.
# Plasma pharmacokinetics = type: in vivo, BALB/c mice; settings: for AUC / Cmax / half-life: female, BALB/c, mouse, plasma; for half-life: 10 mg/kg
# Procedure: Plasma pharmacokinetic parameters of ICL-CCIC-0019 were established in female BALB/c mice aged 6–8 weeks (Harlan). Mice were intraperitoneally (i.p.) or perorally (p.o.) administered a single dose of 10 mg/kg and blood collected by cardiac puncture after 5, 15, 30 minutes and 1, 2, 4, 6 and 24 h. For tissue pharmacokinetic studies, HCT116 xenograft bearing mice were administered 10 mg/kg ICL-CCIC-0019 i.p. and blood collected after 5 minutes, 2, 6 and 24 h. Plasma was obtained by centrifugation at 1000 × g for 10 minutes. Samples were snap-frozen and stored at −80°C prior to analysis. Analysis was carried out by Cyprotex Inc. using liquid chromatography–mass spectrometry (LC–MS). For analysis of plasma metabolites, 2-hour samples of tissue pharmacokinetic studies were pooled.
# HCT116 cells [6] = assay: [3H]acetate uptake; type: cell-based, human
# Procedure: as §1
# HCT116 cells [7] = assay: Mitochondrial respiration (Seahorse XF24); type: cell-based, human; settings: 10 μM
# Procedure: Extracellular acidification and oxygen consumption rates (ECAR and OCR) were measured in a XF24 extracellular flux analyzer (Seahorse XF24 Extra Cellular Flux Analyzer, North Billerica, MA, USA). Basic XF assay medium was prepared as previously described supplemented with glucose, and the pH adjusted to 7.4 at 37°C. Indicated final concentrations of compounds were obtained by injecting appropriate amounts of compounds dissolved in DMSO or water and diluted in XF assay medium into ports. […] Indicated data points were obtained after 3 min mixing and 2 min wait, followed by 3 min of data collection. Data were normalized to the basal values.
# HCT116 cells [8] = assay: TMRE mitochondrial membrane potential assay; type: cell-based, human; settings: 10 μM, 24 h
# Procedure: HCT116 cells were cultured as above with indicated inhibitors and subject to the tetramethylrhodamine ethyl ester dye method (TMRE) membrane potential assay according to the manufacturers instruction (Abcam ab113852) prior to FACS analysis.
# HCT116 cells [9] = assay: Antiproliferative activity (SRB); type: cell-based; settings: Homo sapiens, HCT-116
# Procedure: as §1
# A549 cells = assay: Comparative antiproliferative activity; type: cell-based, human
# Procedure: as §1
compound,measurement,setting,value
CN(C)c1cc[n+](CCCCCCCCCCCC[n+]2ccc(N(C)C)cc2)cc1 [ICL-CCIC-0019],EC50,HCT116 cells [1],980 ± 240 nM
same,GI50,Breast cancer cell lines,627 nM
same,GI50,[2],751 nM
same,LDH concentration in the supernatant,HCT116 cells [3],did not elevate LDH concentration
same,increase of cells in G1 phase,"HCT116 cells [4]; 10 μM, 24 h",2 fold
same,increase of sub-G1 population,HCT116 cells [4]; 48 h,3.7 fold
same,formation of reactive oxygen species,HCT116 cells [5],not accompanied by formation of reactive oxygen species
same,oral bioavailability,Plasma pharmacokinetics; 10 mg/kg p.o.,limited
same,AUC,"Plasma pharmacokinetics; ip, 10 mg/kg I.P.",1.32 µM·h
same,Cmax,"Plasma pharmacokinetics; ip, 10 mg/kg I.P.",5300 nM
same,half-life,"Plasma pharmacokinetics; ip, 10 mg/kg I.P., read-out: t1/2 (1)",0.0967 h
same,half-life,"Plasma pharmacokinetics; ip, 10 mg/kg I.P., read-out: t1/2 (2) (converted)",11 h
same,half-life,"Plasma pharmacokinetics; po, 10 mg/kg P.O, read-out: t1/2 (1)",0.167 h
same,half-life,"Plasma pharmacokinetics; po, 10 mg/kg P.O, read-out: t1/2 (2) (converted)",56 h
same,AUC,"Plasma pharmacokinetics; po, 10 mg/kg P.O",0.05 µM·h
same,Cmax,"Plasma pharmacokinetics; po, 10 mg/kg P.O",36 nM
same,increase of acetate uptake,HCT116 cells [6],10 fold
same,mitochondrial respiration immediately after adding inhibitor (acute effect),HCT116 cells [7],decreased mitochondrial respiration
same,TMRE-detectable mitochondrial membrane potential,HCT116 cells [8],decreased
same,GI50,HCT116 cells [9],380 nM
same,antiproliferative activity compared with CK37,A549 cells,superior to CK37
same,antiproliferative activity compared with MN58B,A549 cells,equipotent to MN58B

# Source: paper PMC5095062, “The novel choline kinase inhibitor ICL-CCIC-0019 reprograms cellular metabolism and inhibits cancer cell growth” (Oncotarget, 2016)
